Test results from PubChem BioAssay AID212 (DTP/NCI, 2004).
“And” between values parts separate entries of the source, which are not always exact repeats. Identical values can stand only once. Results filed as inconclusive are left out.

Test system: BDF1 mice, colon carcinoma 38 sc, T/C %
Assay: NCI In Vivo Anticancer Drug Screen. Data for tumor model Colon Carcinoma 38 (subcutaneous) in B6D2F1 (BDF1) mice
Settings: endpoint: median tumor weight (est.), higher = larger tumour
In short: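 T/C readout: treated group (T) measurement over vehicle control group (C) measurement. Endpoint is survival or tumor size in mice bearing a transplanted tumor.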

[1] = dose: 12.5 mg/kg/injection, schedule: Q07DX002 (ip), vehicle: saline
[2] = dose: 25.0 mg/kg/injection, schedule: Q07DX002 (ip), vehicle: saline
[3] = dose: 50.0 mg/kg/injection, schedule: Q07DX002 (ip), vehicle: saline
[4] = dose: 6.25 mg/kg/injection, schedule: Q07DX002 (ip), vehicle: Klucel (hydroxypropylcellulose) (HPC)
[5] = dose: 12.5 mg/kg/injection, schedule: Q07DX002 (ip), vehicle: Klucel (hydroxypropylcellulose) (HPC)
[6] = dose: 25.0 mg/kg/injection, schedule: Q07DX002 (ip), vehicle: Klucel (hydroxypropylcellulose) (HPC)
[7] = dose: 50.0 mg/kg/injection, schedule: Q07DX002 (ip), vehicle: Klucel (hydroxypropylcellulose) (HPC)
[8] = dose: 100.0 mg/kg/injection, schedule: Q07DX002 (ip), vehicle: Klucel (hydroxypropylcellulose) (HPC)
[9] = dose: 100.0 mg/kg/injection, schedule: Q07DX002 (ip), vehicle: saline
[10] = dose: 200.0 mg/kg/injection, schedule: Q07DX002 (ip), vehicle: saline
[11] = dose: 25.0 mg/kg/injection, schedule: Q07DX002 (ip), vehicle: suspension in saline
[12] = dose: 50.0 mg/kg/injection, schedule: Q07DX002 (ip), vehicle: suspension in saline

Compound: CC1(C)N=C(N)N=C(N)N1c1ccc(F)c(C(F)(F)F)c1
- T/C (dose: 1.56 mg/kg/injection, schedule: Q07DX002 (ip), vehicle: saline): 87 % of control
- T/C (dose: 6.25 mg/kg/injection, schedule: Q07DX002 (ip), vehicle: saline): 81 % of control and 84 % of control
- T/C [1]: 50 % of control and 64 % of control
- T/C (dose: 12.5 mg/kg/injection, schedule: Q07DX003 (ip), vehicle: suspension in saline): 169 % of control
- T/C [2]: 79 % of control and 91 % of control
- T/C (dose: 25.0 mg/kg/injection, schedule: Q07DX003 (ip), vehicle: suspension in saline): 161 % of control
- T/C [3]: 40 % of control and 60 % of control
- T/C (dose: 50.0 mg/kg/injection, schedule: Q07DX003 (ip), vehicle: suspension in saline): 95 % of control
- T/C (dose: 100.0 mg/kg/injection, schedule: Q07DX003 (ip), vehicle: suspension in saline): 104 % of control

Compound: OC1CCCC2CCCNC12 (stereo not given)
- T/C [4]: 102 % of control
- T/C [5]: 100 % of control
- T/C [6]: 85 % of control
- T/C [7]: 100 % of control
- T/C [8]: 109 % of control

Compound: COc1cc(C2C3=C(CC(C)(C)CC3=O)N(CC(=O)O)C3=C2C(=O)CC(C)(C)C3)ccc1O
- T/C [1]: 90 % of control
- T/C [2]: 99 % of control
- T/C [3]: 118 % of control
- T/C [9]: 111 % of control
- T/C [10]: 55 % of control
- T/C (dose: 400.0 mg/kg/injection, schedule: Q07DX002 (ip), vehicle: saline): 118 % of control

Compound: c1ccc2c(NCCCCCCNc3c4ccccc4nc4ccccc34)c3ccccc3nc2c1
- T/C (dose: 1.25 mg/kg/injection, schedule: Q07DX002 (ip), vehicle: Klucel (hydroxypropylcellulose) (HPC)): 109 % of control and 95 % of control
- T/C (dose: 2.5 mg/kg/injection, schedule: Q07DX002 (ip), vehicle: Klucel (hydroxypropylcellulose) (HPC)): 122 % of control and 97 % of control
- T/C (dose: 5.0 mg/kg/injection, schedule: Q07DX002 (ip), vehicle: Klucel (hydroxypropylcellulose) (HPC)): 70 % of control
- T/C (dose: 20.0 mg/kg/injection, schedule: Q07DX002 (ip), vehicle: Klucel (hydroxypropylcellulose) (HPC)): 70 % of control and 76 % of control
- T/C (dose: 40.0 mg/kg/injection, schedule: Q07DX002 (ip), vehicle: Klucel (hydroxypropylcellulose) (HPC)): 72 % of control

Compound: CCN(CC)CC[n+]1ccc2c(C)c3[nH]c4ccc(O)cc4c3c(C)c2c1
- T/C (dose: 3.12 mg/kg/injection, schedule: Q07DX002 (ip), vehicle: saline): 38 % of control
- T/C (dose: 3.12 mg/kg/injection, schedule: Q07DX002 (ip), vehicle: suspension in saline): 82 % of control
- T/C (dose: 6.25 mg/kg/injection, schedule: Q07DX002 (ip), vehicle: suspension in saline): 103 % of control
- T/C (dose: 12.5 mg/kg/injection, schedule: Q07DX002 (ip), vehicle: suspension in saline): 98 % of control
- T/C [2]: 15 % of control and 29 % of control
- T/C [11]: 57 % of control
- T/C [3]: 5 % of control
- T/C [12]: 22 % of control

Compound: C[C@]12CC[C@@H]3c4ccc(O)cc4CC[C@H]3[C@@H]1CC[C@@H]2O
- T/C [4]: 83 % of control
- T/C [5]: 108 % of control and 249 % of control
- T/C [6]: 282 % of control and 99 % of control
- T/C [7]: 260 % of control
- T/C [8]: 282 % of control
- T/C (dose: 200.0 mg/kg/injection, schedule: Q07DX002 (ip), vehicle: Klucel (hydroxypropylcellulose) (HPC)): 117 % of control and 271 % of control

Compound: O=C(O)C(CSC(c1ccccc1)(c1ccccc1)c1ccccc1)N=Cc1cccs1 (stereo not given)
- T/C [2]: 62 % of control
- T/C [11]: 103 % of control
- T/C [3]: 101 % of control
- T/C [12]: 84 % of control
- T/C [9]: 87 % of control
- T/C (dose: 100.0 mg/kg/injection, schedule: Q07DX002 (ip), vehicle: suspension in saline): 107 % of control
- T/C [10]: 51 % of control
- T/C (dose: 200.0 mg/kg/injection, schedule: Q07DX002 (ip), vehicle: suspension in saline): 62 % of control

Compound: O=[N+]([O-])c1ccc(Sc2ccncn2)c([N+](=O)[O-])c1
- T/C (dose: 12.5 mg/kg/injection, schedule: Q07DX002 (ip), vehicle: saline with Tween-80): 51 % of control
- T/C (dose: 25.0 mg/kg/injection, schedule: Q07DX002 (ip), vehicle: saline with Tween-80): 64 % of control and 74 % of control
- T/C (dose: 100.0 mg/kg/injection, schedule: Q07DX002 (ip), vehicle: saline with Tween-80): 43 % of control and 44 % of control
